Laboratory results as given in patent US20220356164A1, “2-AMINOSELENOPHEN COMPOUNDS WITH ANTI-DRUG RESISTANT BACTERIA ACTIVITY AND A METHOD OF PREPARING THE SAME” (ZHUHAI JINAN SELENIUM SOURCE NANOTECHNOLOGY CO., LTD., priority 2021, published 2022).
In brackets after ≈: the same amount, converted by molar mass. Like-named read-outs stand apart in the source and are kept apart here.

Tests used:
Assay type in all cases: cell-based
[1] = test system: multi-drug-resistant Pseudomonas aeruginosa MDR-PA 18-126; experiment: micro broth dilution MIC, MDR-PA 18-126
Description: (§1) Using micro broth dilution method, with ceftazidime and vancomycin as positive controls, test the minimum inhibitory concentration (MIC) of compounds 9, 11, and 14.
(§2) The experimental strains included drug-resistant gram-positive bacteria: methicillin-resistant Staphylococcus aureus MRSA 18-575, 18-596; drug-resistant gram-negative bacteria: multi-drug-resistant Pseudomonas aeruginosa MDR-PA 18-126, 18-756. The experimental strains were all donated by Huashan Hospital Affiliated to Fudan University (Fudan University Antibiotic Research Institute), and used after being identified by conventional methods.
(§3) The specific steps are as follows:
(§4) Preparation of MHB medium: Weigh 20.0 g of MHB medium, add it to 1L of distilled water, heat and boil until it is completely dissolved, divide it into conical flasks, autoclave at 121° C. for 15 minutes, and set aside.
(§5) Cultivate the experimental strains to the logarithmic growth phase: under aseptic conditions, inoculate the experimental strains into 100 mL of MHB medium, and place them in a constant temperature and humidity incubator at 37° C. for 20-22 hours for use.
(§6) Preparation of stock solution: Weigh the sample to be tested and dissolve it with 1% DMSO solution to prepare a stock solution with a concentration of 2560 μg/mL; weigh the positive control substance and dissolve it with sterile distilled water to prepare a stock solution with a concentration of 2560 μg/mL.
(§7) Bacterial suspension preparation: Under aseptic conditions, the experimental strains cultured to the logarithmic growth phase are calibrated to 0.5 McDonald's unit turbidity standard with MHB medium and diluted at a ratio of […] to prepare a concentration of 10^6 CFU/mL Bacterial suspension, spare.
(§8) Stock solution dilution and inoculation of experimental strains: under aseptic conditions, dilute the stock solution to a solution of 256 μg/mL. Take a sterile 96-well plate, add 100 μL of MHB medium to each well except for wells 1-3; add 100 μL of positive control solution to well 2 and 100 μL of compound sample solution to wells 3 and 4; Mix the sample solution in the well with the culture medium, and then pipet 100 μL to the fifth well. After mixing, pipet 100 μL to the sixth well, and then dilute to the tenth well by successive times, and then take 100 μL from the tenth well and discard it. The 11th well is a growth control without drugs; then, add 100 μL of the above-prepared bacterial suspension to each well, so that the final bacterial concentration in each well is 5×10^5 CFU/mL; at this point, the positive control concentration is 128 μg/mL, the concentration of the sample solution is 128, 64, 32, 16, 8, 4, 2, 1 μg/mL.
(§9) Incubation: Cover the 96-well plate that has been inoculated with experimental strains and place it in a constant temperature and humidity box at 37° C. for 20-22 hours.
(§10) Record the results as shown in FIGS. 1 to 10 (the holes are in order from left to right corresponding to positive, 128, 64, 32, 16, 8, 4, 2, 1, negative) and Table 1.

[2] = test system: methicillin-resistant Staphylococcus aureus MRSA 18-575; experiment: micro broth dilution MIC, MRSA 18-575; details: read-out: The minimum inhibitory concentration, MRSA 18-575
Description: as §1, §2, §3, §4, §5, §6, §7, §8, §9, §10

[3] = test system: methicillin-resistant Staphylococcus aureus MRSA 18-596; experiment: micro broth dilution MIC, MRSA 18-596
Description: as §1, §2, §3, §4, §5, §6, §7, §8, §9, §10

[4] = test system: multi-drug-resistant Pseudomonas aeruginosa MDR-PA 18-756; experiment: micro broth dilution MIC, MDR-PA 18-756; details: read-out: The minimum inhibitory concentration, MDR-PA 18-756
Description: as §1, §2, §3, §4, §5, §6, §7
as §8, with “1 μg/mL. […]” for “1 μg/mL.”

[5] = read-out: The minimum inhibitory concentration, MDR-PA 18-126
[6] = MRSA, read-out: The minimum inhibitory concentration, MRSA 18-596

SMILES	MIC ([1]; strain MDR-PA 18-126, MHB medium, 37° C., 20-22 hours, read-out: The minimum inhibitory concentration, MDR-PA 18-126)	MIC ([2]; strain MRSA 18-575, MHB medium, 37° C., 20-22 hours)	MIC ([3]; strain MRSA 18-596, MHB medium, 37° C., 20-22 hours, read-out: The minimum inhibitory concentration, MRSA 18-596)	MIC ([4]; strain MDR-PA 18-756, MHB medium, 37° C., 20-22 hours)	MIC [1, 5]	MIC ([2]; MRSA)	MIC [3, 6]	MIC [4]	MIC ([1]; read-out: MIC against MDR-PA)	MIC ([3]; MRSA, read-out: MIC against drug-resistant gram-positive bacteria MRSA)
CC(C)(O/N=C(\C(=O)N[C@@H]1C(=O)N2C(C(=O)[O-])=C(C[n+]3ccccc3)CS[C@H]12)c1csc(N)n1)C(=O)O [Ceftazidime, reference compound]	128 µg/mL (≈ 234 µM)	128 µg/mL (≈ 234 µM)	128 µg/mL (≈ 234 µM)	128 µg/mL (≈ 234 µM)						
N#Cc1c(N)[se]c2c1CCCC2 [Compound 9]					> 128 µg/mL	128 µg/mL (≈ 569 µM)	128 µg/mL (≈ 569 µM)	128 µg/mL (≈ 569 µM)		
N#Cc1c(N)[se]c2c1CCCCC2 [Compound 11]					64 µg/mL (≈ 268 µM)	32 µg/mL (≈ 134 µM)	16 µg/mL (≈ 66.9 µM)	64 µg/mL (≈ 268 µM)	64 µg/mL (≈ 268 µM)	16 µg/mL (≈ 66.9 µM)
CCCCc1c[se]c(N)c1C#N [Compound 14]					64 µg/mL (≈ 282 µM)	128 µg/mL (≈ 563 µM)	64 µg/mL (≈ 282 µM)	> 128 µg/mL		
CN[C@H](CC(C)C)C(=O)N[C@H]1C(=O)N[C@@H](CC(N)=O)C(=O)N[C@H]2C(=O)N[C@H]3C(=O)N[C@H](C(=O)N[C@H](C(=O)O)c4cc(O)cc(O)c4-c4cc3ccc4O)[C@H](O)c3ccc(c(Cl)c3)Oc3cc2cc(c3O[C@@H]2O[C@H](CO)[C@@H](O)[C@H](O)[C@H]2O[C@H]2C[C@](C)(N)[C@H](O)[C@H](C)O2)Oc2ccc(cc2Cl)[C@H]1O [Vancomycin, reference compound]						512 µg/mL (≈ 353 µM)	512 µg/mL (≈ 353 µM)			
